Reference: patent US20140155324A1, “NOVEL PEPTIDES AND USES THEREOF IN THERAPEUTIC METHODS” (TWO TO BIOTECH LTD., priority 2011, published 2014)

Columns and labels:
Assay type in all cases: in vivo, C57Bl/6 male mice
[1] = Glucose tolerance test (GTT) after 2 weeks of treatment; conditions: mice, 0.25, 1.5 or 15 mg/Kg 3 times a week for 2 weeks; glucose 2 g/Kg i.p., 0-120 min; optimal response at 1.5 mg/Kg; FIG. 1
Protocol: Twenty 7-weeks old C57Bl/6 male mice (per experiment) were purchased from Harlan Biotech (Jerusalem, Israel). All mice were maintained in the animal facility room at the company facility. The mice were given standard laboratory chow and water ad libitum and kept in a 12-hour light/dark cycle. All animal experiments were carried out in accordance with the guidelines of the Israeli authority for animal experiments for Care and Use of Laboratory Animals and with the authority specific approval. At the end of experiment (two weeks) a glucose tolerance test (GTT) was performed. The mice were starved overnight prior to administration of the test. Glucose was injected intraperitoneally (i.p.) (2 g/Kg body weight) and blood glucose levels were measured at time-points 0 min, 15 min, 30 min, 60 min, 90 min and 120 min. Blood glucose was determined by sampling tail vein blood using a standard glucometer. Male C57131/6 mice were divided into four groups of 5 mice each. The control group (Group I) received 5% Mannitol IV (200 μL 3 times a week). Group II received a dose of APC2 (0.25 mg/Kg body weight) 3 times a week. Group III received a dose of APC2 (1.5 mg/Kg body weight) 3 times a week. Group IV received a dose of APC2 (15 mg/Kg body weight) 3 times a week. The mice were treated for 2 weeks. […]

Plasma glucagon assay = conditions: mice, 0.25, 1.5 or 15 mg/Kg 3 times a week for 2 weeks; FIG. 2
Protocol: (§1) Twenty 7-weeks old C57Bl/6 male mice (per experiment) were purchased from Harlan Biotech (Jerusalem, Israel). All mice were maintained in the animal facility room at the company facility. The mice were given standard laboratory chow and water ad libitum and kept in a 12-hour light/dark cycle. All animal experiments were carried out in accordance with the guidelines of the Israeli authority for animal experiments for Care and Use of Laboratory Animals and with the authority specific approval.
Mice tail vein was punctured and blood glucose was assayed using a standard glucometer.
(§2) Male C57131/6 mice were divided into four groups of 5 mice each. The control group (Group I) received 5% Mannitol IV (200 μL 3 times a week). Group II received a dose of APC2 (0.25 mg/Kg body weight) 3 times a week. Group III received a dose of APC2 (1.5 mg/Kg body weight) 3 times a week. Group IV received a dose of APC2 (15 mg/Kg body weight) 3 times a week. The mice were treated for 2 weeks.
In addition to GTT, the mice plasma glucagon levels were assayed as described in the Methods section.

insulin receptor = assay: Insulin receptor RNA level in splenocytes of treated mice; conditions: mice, 0.25, 1.5 or 15 mg/Kg 3 times a week for 2 weeks; HPRT control; maximal induction at 1.5 mg/Kg; FIG. 3B
Protocol: (§3) Mice were sacrificed and dissected. 15-20 mg of appropriate tissue was taken and stabilized in RNA-Save. RNA was extracted from the tissue using an RNeasy mini kit. Homogenization was performed using a 22G needle and syringe. cDNA was prepared from the RNA using EZ-first strand cDNA synthesis kit for RT-PCR. PCR of samples was performed using GoTaq Green Master Mix using appropriate primers (40 cycles, annealing temperature: 62° C.).
as §2
(§4) At the end of the experiment, the mice were sacrificed, the splenocytes were collected from the different mice groups and the RNA levels of HPRT (control), insulin receptor and GLUT4 were assayed.

GLUT-4 = GLUT-4 RNA level in splenocytes of treated mice; conditions: mice, 0.25, 1.5 or 15 mg/Kg 3 times a week for 2 weeks; HPRT control; maximal induction at 1.5 mg/Kg; FIG. 3C
Protocol: as §3, §2, §4

TNFα = assay: Serum TNFα assay (Bio-Plex); conditions: mice, 0.25, 1.5 or 15 mg/Kg 3 times a week for 2 weeks; optimal response at 1.5 mg/Kg; FIG. 4A
Protocol: as §1
(§5) Blood was drawn from each mouse and collected separately in a 1.5 ml vial. After 30 min to 1 hr at room temperature, the clotted blood was centrifuged at 300G for 15 minutes at 4° C. The supernatant was collected to a new 1.5 ml vial and centrifuged again at 300G for 15 minutes. The supernatant was collected to a new 1.5 ml vial and frozen at −70° C. for later analysis. When ready for analysis, the blood vials were quickly thawed in a water bath at room temperature, and then centrifuged at 13,000 G for 10 minutes at 4° C. Samples were analyzed according to the Bio-Plex Pro assay instruction manual using a flat bottom black plate.
(§6) Male CS7Bl/6 mice were divided into four groups of 5 mice each. […]
(§7) At the end of the experiment, TNFα and IL-1β were measured in the mice plasma, and the results are presented in FIGS. 4A and 4B, respectively.

IL-1β = assay: Serum IL-1β assay (Bio-Plex); conditions: mice, 0.25, 1.5 or 15 mg/Kg 3 times a week for 2 weeks; optimal response at 1.5 mg/Kg; FIG. 4B
Protocol: as §1, §5, §6, §7

| Substance | glucose tolerance (blood glucose levels after i.p. glucose) [1] | plasma glucagon levels (Plasma glucagon assay) | insulin receptor RNA levels in splenocytes (insulin receptor) | GLUT4 RNA levels in splenocytes (GLUT-4) | TNFα levels (TNFα) | IL-1β levels (IL-1β) |
| --- | --- | --- | --- | --- | --- | --- |
| APC-2: isolated polypeptide of SEQ ID NO. 1, hormone-like protein expressed in human heart and lymphocytes (MITSWFSLLPGSQEATATPPFPVVAGRKH; Homo sapiens APC2) | improved glucose tolerance in a dose-dependent manner | reduced in a dose-dependent manner | up-regulated | up-regulated |  |  |
| APC-3: isolated polypeptide of SEQ ID NO. 5, hormone-like protein expressed in human spleen, testis, small intestine, colon and kidney (MSSFCLALEVFHPTVSSGRSRPYQIASLETPVLNYSFHHRR; Homo sapiens APC3) |  |  |  |  | reduced both inflammatory cytokines levels in a dose-dependent manner | reduced both inflammatory cytokines levels in a dose-dependent manner |
